Measured values reported in patent US6365341B1, “Stabilization of highly sensitive nucleic acid stains in aqueous solutions” (priority 2000, dated 2002).

Key:
[1] = Dye stabilization in gels: GelStar-prestained agarose gels with additives, 6 days at 45° C., intensity of a 2.5 ng DNA band; type: physicochemical; settings: GelStar in gel, 6 days in the dark
Experimental: SeaKem LE agarose gels (1% w/v, BMA Inc) were cast in 1×TAPS buffer (3-(N-tris(hydroxymethyl)methylamino)-propanesulfonic acid, 40 mM) in the presence of 1×GelStar nucleic acid stain (BMA Inc) and additives indicated in Table 1. Gels were incubated in the dark for 6 days at 45° C., and tested for the detection of DNA as follows: Gels were submerged in 1×TAPS electrophoresis buffer without dye. Then DNA was electrophoresed through the gel at 20 V/cm for one hour. The intensity of a 2.5 ng DNA band was examined by transillumination at 300 nm. The stain in the gel was considered stabilized if the fluorescence intensity of the DNA was more than 80% compared to when the gel was freshly prepared with stain. […] The quality of DNA resolution in fresh gels were recorded as “Good” when the DNA band was sharp, “Fair” when the DNA band was broad, and “Poor” when the DNA band was fuzzy.

[2] = Dye stabilization in solution: t½ of fluorescence intensity with lambda DNA; settings: Table 3
[3] = buffer, pH 8.2
[4] = Dyes that are stabilized by the additive TPABr: t½ in 1xTAPS buffer; settings: 1xTAPS pH 8.2, with or without 14.6 mM TPABr; transillumination at 300 nm

Compound: Tween-20
- Dye stabilization at 45° C. ([1]; additive 0.1% (v/v)): No

Compound: CCCCCCCCCCCC[N+](C)(C)C.[Br-] [Dodecyltrimethylammonium bromide]
- Dye stabilization at 45° C. ([1]; additive 28 mM): No

Compound: CCCCC[N+](CCCCC)(CCCCC)CCCCC.[OH-] [TPAOH, Tetrapentylammonium hydroxide]
- Dye stabilization at 45° C. ([1]; additive 7.3 mM): Yes (The stain in the gel was considered stabilized if the fluorescence intensity of the DNA was more than 80% compared to when the gel was freshly prepared with stain)
- Dye stabilization at 45° C. ([1]; additive 14.6 mM): Yes (The stain in the gel was considered stabilized if the fluorescence intensity of the DNA was more than 80% compared to when the gel was freshly prepared with stain)

Compound: CCCN(CCCN(C)C)c1cc(/C=C2/Sc3ccccc3N2C)c2ccccc2[n+]1-c1ccccc1 [SYBR Green I]
- increase of half-life by tetramethylammonium hydroxide alone [2]: 4 fold
- t½ with TPABr [3]: over 100 days
- t½ without TPABr [3]: 120 h

Compound: CC[n+]1c(-c2ccccc2)c2cc(N)ccc2c2ccc(N)cc21 [ethidium bromide]
- effect of TPABr on the stability [4]: marginal

Compound: CCCC[N+](CCCC)(CCCC)CCCC.[OH-] [Tetrabutylammonium hydroxide (TBAOH), Tetrabutylammonium hydroxide]
- Dye stabilization at 45° C. ([1]; additive 14.6 mM): Yes (The stain in the gel was considered stabilized if the fluorescence intensity of the DNA was more than 80% compared to when the gel was freshly prepared with stain)

Compound: CN1CCN(c2ccc3[nH]c(-c4ccc5[nH]c(-c6ccc(O)cc6)nc5c4)nc3c2)CC1 [Hoechst 33258, Hoechst 33258 pentahydrate (bis-benzimide: BisBnz]
- effect of TPABr on the stability [4]: marginal
